# Source: patent US10787426B2, “Method of treating autism spectrum disorders using piperazine-1-carboxamidine or pharmaceutically acceptable salt thereof” (NEUROVENTI, priority 2016, dated 2020)
# Tests used:
# Format in all cases: in vivo, Sprague-Dawley (SD) rats
# [1] = test system: valproic acid-induced autism rat models; test: Electroshock-induced seizure threshold (CC50); details: 25 mg/kg, intraperitoneal once a day; Litchfield-Wilcoxon method; versus valproic acid-exposed solvent control; FIG. 5
# Experimental: (§1) In particular, valproic acid was subcutaneously injected into female adult Sprague-Dawley (SD) rats on day 12 of gestation, at a dose of 450 mg/kg and in an administration amount of 10 ml/kg, and then the SD rats gave birth to babies. When the born babies were 21 days old, they were grouped according to body weight and selected as autism rat models. As a group administered a solvent, on day 12 of gestation, female adult SD rats were administered a saline solution instead of valproic acid, at the same dose and in the same administration amount.
# (§2) The autism rat models prepared according to Example <1-1> were intraperitoneally administered piperazine-1-carboxamidine 24 days after birth once a day at a predetermined time. At this time, piperazine-1-carboxamidine was administered at a dose of […], 12.5 mg/kg, 25 mg/kg, or 50 mg/kg, and in an amount of 10 ml/kg. The administration process was repeated until all the experiments were completed, and was performed 30 minutes before experiments, in the case of behavioral experiments.
# To confirm an effect of piperazine-1-carboxamidine on treating autism spectrum disorder in autism rat models, electroshock-induced seizure susceptibility was evaluated in autism rat models (Park, Hyung Geun, et al. European journal of pharmacology 574.2, 2007: 112-119; Browning, R. A., et al. Epilepsy research 6.1, 1990: 1-11). […]
# [2] = test system: valproic acid-induced autism rat models; test: Social preference test (familiar side vs novel side); details: 12.5 mg/kg or 25 mg/kg, intraperitoneal once a day, FIG. 2B
# Experimental: as §1, §2
# To further verify an effect of piperazine-1-carboxamidine on treating autism spectrum disorder in valproic acid-induced autism rat models, an experiment for confirming social preference was carried out.
# In particular, after social interest was confirmed in Example <2-1>, another identical type of rat were placed in the empty cage at one end of the box structure, and a social interaction experiment for the autism rat models as experimental groups was conducted for 10 minutes. The cage in which rat were placed in Example <2-1> was regarded as a familiar side, the cage in which new rat were placed was regarded as a novel side, and the degree of interest expressed by the autism rat models as experimental groups was confirmed using the EthoVision system by measuring residence time for each case. A significance test was performed using two-way ANOVA, followed by a Bonferroni's post hoc test.
# [3] = test system: valproic acid-induced autism rat models; test: Repetitive behavior test (grooming time); details: 12.5 mg/kg or more, intraperitoneal once a day; grooming time over 10 minutes; compared to autism-induced solvent control; FIG. 3
# Experimental: as §1
# The autism rat models prepared according to Example <1-1> were intraperitoneally administered piperazine-1-carboxamidine 24 days after birth once a day at a predetermined time. […]
# To confirm an autism therapeutic effect of piperazine-1-carboxamidine in valproic acid-induced autism rat models based on these findings, a grooming level enhancement effect was evaluated in the autism rat models.
# In particular, the autism rat models of Example <1-2>, which were administered piperazine-1-carboxamidine and aged between 33 days and 38 days, were placed in a cage (42 cm×29 cm×19 cm) without straw litter and adapted thereto for 10 minutes. Thereafter, the grooming time of the autism rat models was measured for 10 minutes to confirm the degree of repetitive behavior. […]
# [4] = test system: valproic acid-induced autism rat models; test: Social interaction test (three-compartment box, stranger vs empty cage); details: 6.25 mg/kg or more, intraperitoneal once a day, 10 minutes test, compared to solvent control (VPA), FIG. 2A
# Experimental: as §1, §2
# To verify an effect of piperazine-1-carboxamidine on treating autism spectrum disorder in valproic acid-induced autism rat models, changes in social interaction according to whether piperazine-1-carboxamidine was administered or not were examined (Crawley, Jacqueline N. Mental retardation and developmental disabilities research reviews 10.4 (2004): 248-258). […]
# [5] = test system: valproic acid-induced autism rat models; test: Open field test (hyperactivity and impulsive behavior); details: 25 or 50 mg/kg, intraperitoneal once a day, open field 10 minutes
# Experimental: as §1, §2
# To confirm an effect of piperazine-1-carboxamidine on treating autism spectrum disorder in autism rat models, general locomotor activity of the autism rat models was evaluated by an open field test for assaying enhancement and deterioration of motor functions, sedation, excitement, anxiety, depression, the degree of avoidance, and toxicity. […]
# [6] = 10 minutes test, versus autism-induced solvent control
smiles,measurement,setting,value
N=C(N)N1CCNCC1 [piperazine-1-carboxamidine],"CC50 (convulsive current 50, electroshock-induced seizure threshold)",[1],significantly increased
same,"level of interest in the familiar side, residence time",[2]; [6],decreased
same,"level of interest in the novel side, residence time",[2]; [6],increased
same,social preference patterns,[2]; relative to normal controls,restored to levels similar to those of the normal controls
same,"degree of grooming (grooming time, repetitive behavior)",[3],decreased
same,"degree of interest in new rat (strangers), residence time",[4]; 30 minutes before test,significantly increased
same,"degree of interest in the new empty side, residence time",[4],decreased
same,emotional disturbance-related movement in the central region (ratio of moving distance in central region to total),[5]; FIG. 4B,reduced to levels of the normal controls
same,degree of hyperactivity (total moving distance),"[5]; versus autism-induced solvent control, FIG. 4A",significantly decreased
